From patent US20070173539A1, “Use of malonomicin and analogs in fungicidal applications” (priority 2006, published 2007)
Where two headings read alike, the source gives them in different places.

Experiments:
Format in all cases: in vivo
[1] = tested on: Puccinia recondita f. sp. tritici (PUCCRT); assay: Brown Rust of Wheat one day protectant (1DP); conditions: wheat (Monon), sprayed to runoff, rate 200 ppm
Procedure: (§1) Final treatment volumes were obtained by adding 0.1 percent aqueous Ethomeen T25 or 0.1 percent aqueous Spraymate X77+0.1 percent wt./vol. ammonium sulfate^+. Brown Rust of Wheat (Puccinia recondita f. sp. tritici-PUCCRT) (1 DP) Wheat (cultivar Monon) was grown in plastic pots (6.2 cm×8.75 cm) containing 50 percent mineral soil, 50 percent Metro-Mix 360 (W.R Grace and Co.) until the seedlings were 10-20 cm tall. These plants were then sprayed to runoff with the test compound at a rate of 200 ppm. After 24 hours the test plants were inoculated by spraying with an aqueous spore suspension of Puccinia recondita f. sp. tritici (PUCCRT). The plants were then transferred to a dew chamber for 24 hours, then to the greenhouse until disease developed on the untreated control plants.

[2] = tested on: Septoria tritici SEPTTR; assay: Curative low volume test, wheat leaf blotch; conditions: curative 3 days, low volume 300 L/ha
Procedure: Tomatoes and grapes were grown in a soil-less peat-based potting mixture (Metro-Mix 360) while wheat was propagated in a 50/50 mix of mineral soil and Metro-Mix 360.
The malonomicin sample (Compound I) used in the low volume foliar spray was prepared by dissolving the material in deionized water with the desired adjuvant concentration. (0.05 percent Spraymate X-77+0.05 percent PVA+0.1 percent ammonium sulfate+0.1 percent EDTA)
For low volume applications, compound was applied to plants at the spray volume of 300 L/ha using a track sprayer with an SS8003E spray nozzle and a spray pressure of 255 kPa with a boom height of 40 cm from test plants. For a control, the same mixture is sprayed without active ingredient (solvent control).
Curative tests (DC) were inoculated the designated day(s) prior to treatment application. Disease severity was assessed as the percentage of the total surface area of the sprayed leaves covered by disease. Percent disease control relative to the solvent control was then calculated. Phytotoxicity symptoms and severity, if present, were also recorded. Four replicate plants per treatment for low volume applications were used.
Wheat plants were inoculated using approximately 1×10^7 spores/mL. Distilled water was poured into inoculum plates and the spores were dislodged using a spatula. The spores and water were filtered through 2 layers of cheesecloth, and three drops of Tween 20 per 100 mL of solution were added as a wetter. Test plants were then placed in a walk-in dew room at 22° C., 99 percent RH for 24 hours, after which time the plants were sub-irrigated with Hoagland's solution for 30 minutes and then moved into a misting greenhouse system where they were lightly misted every 90 seconds for three days. When the three-day misting period was completed, the plants were moved to the dry area of the greenhouse and bottom-watered daily until disease was fully expressed on the solvent control (10-14 days in summer, 14-21 days in winter). During the fall and winter months, the addition of a cart hood was used post-dew room, until assessment, in order to enhance disease uniformity and expression.

[3] = tested on: Colletotricum lagenarium (COLLLA); assay: Cucumber Anthracnose one day protectant (1DP); conditions: cucumber (Bush Champion), sprayed to runoff, rate 200 ppm
Procedure: Compound formulation was accomplished by dissolving Compound I, II, III, IV, V, or VI in water with serial dilutions to obtain desired rates. Final treatment volumes were obtained by adding 0.1 percent aqueous Ethomeen T25 or 0.1 percent aqueous Spraymate X77+0.1 percent wt./vol. ammonium sulfate^+.
Cucumber Anthracnose (Colletotricum lagenarium; COLLLA) (1DP)
Cucumber plants (variety Bush Champion) were grown in plastic pots containing 100 percent Metro-Mix 360 (W.R Grace and Co.) until the first true leaf was 20-80 percent expanded. Each pot contained 1 seedling. These plants were then sprayed to runoff with the test compound at a rate of 200 ppm. After 24 hours, the plants were sprayed with an aqueous spore suspension of Colletotricum lagenarium (COLLLA). The plants were then transferred to a dew chamber for 24 hours, then to a growth chamber until disease developed on the untreated control plants.

[4] = tested on: Venturia inaequalis (VENTIN); assay: Apple Scab curative (compound added 2 days after inoculation); conditions: Curative at 200 ppm
[5] = tested on: Septoria tritici (SEPTTR); assay: Speckled Leaf Blotch of Wheat one day protectant (1DP); conditions: wheat (Monon), sprayed to runoff, rate 200 ppm
Procedure: as §1, with “Speckled Leaf Blotch” for “Brown Rust”, “(Septoria tritici-[…])” for “(Puccinia recondita f. sp. tritici-PUCCRT) (1 DP)”, “Septoria” for “Puccinia recondita f. sp.”, “([…]).” for “(PUCCRT).”

[6] = tested on: Phytophthora infestans (PHYTIN); conditions: 1DP, tomato (rutgers), sprayed to runoff, rate 200 ppm
[7] = tested on: Phytophthora infestans PHYTIN; conditions: curative 1 day, low volume 300 L/ha, tomato
[8] = tested on: Erysiphe graminis f. sp. tritici (ERYSGT); assay: Powdery Mildew of Wheat one day protectant (1DP); conditions: wheat (Monon), sprayed to runoff, rate 200 ppm
Procedure: Final treatment volumes were obtained by adding 0.1 percent aqueous Ethomeen T25 or 0.1 percent aqueous Spraymate X77+0.1 percent wt./vol. ammonium sulfate^+. Powdery Mildew of Wheat (Erysiphe graminis f. sp. tritici-[…]) Wheat (cultivar Monon) was grown in plastic pots (6.2 cm×8.75 cm) containing 50 percent mineral soil, 50 percent Metro-Mix 360 (W.R Grace and Co.) until the seedlings were 10-20 cm tall. These plants were then sprayed to runoff with the test compound at a rate of 200 ppm. After 24 hours the test plants were inoculated with Erysiphe graminis f. sp. tritici ([…]) by dusting spores from stock plants onto the test plants. The plants were then transferred to the greenhouse until disease developed on the untreated control plants.

[9] = tested on: Venturia inaequalis (VENTIN); assay: Apple Scab one day protectant (1DP); conditions: 0.1 percent Spraymate X77 + 0.1 percent ammonium sulfate

With NC[C@@H]1NC(=O)C(C(=O)CC(NC(=O)[C@@H](N)CO)(C(=O)O)C(=O)O)=C1O [Compound I, {[(2S)-2-amino-3-hydroxypropanoyl]amino}{2-[(5S)-5-(aminomethyl)-4-hydroxy-2-oxo-2,5-dihydro-1H-pyrrol-3-yl]-2-oxoethyl}malonic acid] the “PUCCRT percent control of plant disease” value [1] was “++ (++ = 75-100 percent control of plant disease)”, the “SEPTTR 3DC percent disease control” value ([2]; 7.8 g ai/ha) was “++ (++ = 75-100 percent control)” and the “SEPTTR 3DC percent disease control” value ([2]; 15.6 g ai/ha) was “++ (++ = 75-100 percent control)”. For the same molecule, the “SEPTTR 3DC percent disease control” value ([2]; 31.2 g ai/ha) was “++ (++ = 75-100 percent control)”, the “SEPTTR 3DC percent disease control” value ([2]; 62.5 g ai/ha) was “++ (++ = 75-100 percent control)” and the “SEPTTR 3DC percent disease control” value ([2]; 125 g ai/ha) was “++ (++ = 75-100 percent control)”. The “SEPTTR 3DC percent disease control” value ([2]; 250 g ai/ha) was “++ (++ = 75-100 percent control)”, the “COLLLA percent control of plant disease” value [3] was “− (− = 0-29 percent control of plant disease)” and the “VENTIN percent control of plant disease” value [4] was “++ (++ = 75-100 percent control of plant disease)”. The “SEPTTR percent control of plant disease” value [5] was “++ (++ = 75-100 percent control of plant disease)”, the “PHYTIN percent control of plant disease” value [6] was “++ (++ = 75-100 percent control of plant disease)” and the “PHYTIN 1DC percent disease control” value ([7]; 7.8 g ai/ha) was “− (− = 0-29 percent control of plant disease)”. For the same molecule, the “PHYTIN 1DC percent disease control” value ([7]; 15.6 g ai/ha) was “+ (+ = 30-74 percent control of plant disease)”, the “PHYTIN 1DC percent disease control” value ([7]; 31.2 g ai/ha) was “+ (+ = 30-74 percent control of plant disease)” and the “PHYTIN 1DC percent disease control” value ([7]; 62.5 g ai/ha) was “− (− = 0-29 percent control of plant disease)”. For the same molecule, the “PHYTIN 1DC percent disease control” value ([7]; 125 g ai/ha) was “+ (+ = 30-74 percent control of plant disease)”, the “PHYTIN 1DC percent disease control” value ([7]; 250 g ai/ha) was “++ (++ = 75-100 percent control)” and the “ERYSGT percent control of plant disease” value [8] was “− (− = 0-29 percent control of plant disease)”. The “VENTIN percent control of plant disease” value ([9]; 50 ppm) was “++ (++ = 75-100 percent control of plant disease)”, the “VENTIN percent control of plant disease” value ([9]; 100 ppm) was “++ (++ = 75-100 percent control of plant disease)” and the “VENTIN percent control of plant disease” value ([9]; rate 200 ppm) was “+ (+ = 30-74 percent control of plant disease)”.
